Values of other authors as cited in patent US20130331402A1, “DOSING REGIMEN ASSOCIATED WITH LONG-ACTING INJECTABLE PALIPERIDONE ESTERS” (Janssen Pharmaceutica NV, priority 2009, published 2013).

conditions: background statement

Row | Structure (SMILES) | water solubility
1 | CCCCCCCCCCCCCCCC(=O)OC1CCCn2c1nc(C)c(CCN1CCC(c3noc4cc(F)ccc34)CC1)c2=O (racemic) [paliperidone palmitate, (±)-3-[2-[4-(6-fluoro-1,2-benzisoxazol-3-yl)-1-piperidinyl]ethyl]-6,7,8,9-tetrahydro-2-methyl-4-oxo-4H-pyrido[1,2-c]pyrimidin-9-yl hexadecanoate] | extreme low water solubility

conditions: oral atypical antipsychotics, Table 2

Row | Structure (SMILES) | Terminal Half-life [h]
2 | CCN1CCCC1CNC(=O)c1cc(S(=O)(=O)CC)c(N)cc1OC (stereo not drawn) [Amisulpride] | 12
3 | O=C1CCc2ccc(OCCCCN3CCN(c4cccc(Cl)c4Cl)CC3)cc2N1 [Aripiprazole] | 47 to 68
4 | CN1CCN(C2=Nc3cc(Cl)ccc3Nc3ccccc32)CC1 [Clozapine] | 9 to 17
5 | Cc1nc2n(c(=O)c1CCN1CCC(c3noc4cc(F)ccc34)CC1)CCCC2O (stereo not drawn) [Paliperidone (9-hydroxy-risperidone), Paliperidone] | 25
6 | OCCOCCN1CCN(C2=Nc3ccccc3Sc3ccccc32)CC1 [Quetiapine] | 6
7 | O=C1NCCN1CCN1CCC(c2cn(-c3ccc(F)cc3)c3ccc(Cl)cc23)CC1 [Sertindole] | 70
8 | O=C1Cc2cc(CCN3CCN(c4nsc5ccccc45)CC3)c(Cl)cc2N1 [Ziprasidone] | 8 to 10

same assay, conditions: oral typical antipsychotics, Table 1

Row | Structure (SMILES) | Terminal Half-life [h]
9 | CN(C)CCCN1c2ccccc2Sc2ccc(Cl)cc21 [Chlorpromazine] | 8 to 35
10 | OCCN1CCN(CC/C=C2/c3ccccc3Sc3ccc(C(F)(F)F)cc32)CC1 [Flupenthixol] | 22 to 36
11 | OCCN1CCN(CCCN2c3ccccc3Sc3ccc(C(F)(F)F)cc32)CC1 [Fluphenazine] | 14 to 24
12 | O=C(CCCN1CCC(O)(c2ccc(Cl)cc2)CC1)c1ccc(F)cc1 [Haloperidol] | 12 to 36
13 | CN1CCN(C2=Nc3ccccc3Oc3ccc(Cl)cc32)CC1 [Loxapine] | 4
14 | CCc1c(C)[nH]c2c1C(=O)C(CN1CCOCC1)CC2 (stereo not drawn) [Molindone] | 1.5
15 | OCCN1CCN(CCCN2c3ccccc3Sc3ccc(Cl)cc32)CC1 [Perphenazine] | 8 to 21
16 | O=c1[nH]c2ccccc2n1C1CCN(CCCC(c2ccc(F)cc2)c2ccc(F)cc2)CC1 [Pimozide] | 48 to 72
17 | CN1CCN(CCCN2c3ccccc3Sc3ccc(Cl)cc32)CC1 [Prochlorperazine] | 4 to 8
18 | CSc1ccc2c(c1)N(CCC1CCCCN1C)c1ccccc1S2 (stereo not drawn) [Thioridazine] | 9 to 30
19 | CN1CCN(CC/C=C2/c3ccccc3Sc3ccc(S(=O)(=O)N(C)C)cc32)CC1 [Thiothixene] | 34
20 | CN1CCN(CCCN2c3ccccc3Sc3ccc(C(F)(F)F)cc32)CC1 [Trifluoperazine] | 10 to 20

conditions: depot intramuscular antipsychotics

Row | Structure (SMILES) | t1/2 (apparent terminal half-life after multiple dosing) [h]
21 | CCCCCCCCCC(=O)OCCN1CCN(CC/C=C2\c3ccccc3Sc3ccc(Cl)cc32)CC1 [Clopenthixol decanoate] | 456
22 | CCCCCCCCCC(=O)OCCN1CCN(CC/C=C2\c3ccccc3Sc3ccc(C(F)(F)F)cc32)CC1 [Flupenthixol decanoate] | 408
23 | CCCCCCCCCC(=O)OCCN1CCN(CCCN2c3ccccc3Sc3ccc(C(F)(F)F)cc32)CC1 [Fluphenazine decanoate] | 336
24 | CCCCCCC(=O)OCCN1CCN(CCCN2c3ccccc3Sc3ccc(C(F)(F)F)cc32)CC1 [Fluphenazine enanthate] | 96
25 | O=C1NCN(c2ccccc2)C12CCN(CCCC(c1ccc(F)cc1)c1ccc(F)cc1)CC2 [Fluspirilene] | 170
26 | CCCCCCCCCC(=O)OC1(c2ccc(Cl)cc2)CCN(CCCC(=O)c2ccc(F)cc2)CC1 [Haloperidol decanoate] | 504
27 | Cc1cc2c(s1)Nc1ccccc1N=C2N1CCN(C)CC1.O.O=C(O)c1cc2ccccc2c(Cc2c(O)c(C(=O)O)cc3ccccc23)c1O [Olanzapine pamoate] | 720
28 | CCCCCCC(=O)OCCN1CCN(CCCN2c3ccccc3Sc3ccc(Cl)cc32)CC1 [Perphenazine enanthate] | 96 to 140
29 | CCCCCCCCCCCCCCCC(=O)OCCC1CCN(CCCN2c3ccccc3Sc3ccc(S(=O)(=O)N(C)C)cc32)CC1 [Pipothiazine palmitate] | 360 to 384
30 | CCCCCCCCCC(=O)OCCN1CCN(CC/C=C2/c3ccccc3Sc3ccc(Cl)cc32)CC1 [Zuclopenthixol decanoate] | 456
